The values below are quoted from earlier work in publication PMC4386841 (Journal of the American Chemical Society, 2015).

Where two headings read alike, the source gives them in different places.

Data set [1] relates to MIF.

Regarding `COC(=O)C[C@H]1CC(c2ccc(O)cc2)=NO1` [(R)-ISO-1], the concentration for half-maximal inhibition (IC50) (commonly the point on the concentration scale where inhibition reaches its midpoint) in data set [1] (DOPA as substrate) is […]; in data set [1] (independent assay using DOPA), […].
Turning to `O=c1c(-c2ccc(O)c(O)c2)coc2cc(O)ccc12` [Orita-13, 3-(3,4-dihydroxyphenyl)-7-hydroxy-4H-chromen-4-one], the Ki (as a rule, the equilibrium dissociation constant of an inhibitor or competing ligand from its target) in data set [1] (dopachrome assay) was 0.038 µM.
For `CN1C(C(=O)Nc2ccccn2)=C(O)c2ccccc2S1(=O)=O` [Piroxicam], the “Aqueous solubility, literature value” is recorded as 5.9 µg/mL.
